28 compounds from patent US7868022B2, “2-amino-quinoline derivatives useful as inhibitors of β-secretase (BACE)” (Janssen Pharmaceutica NV, priority 2006, dated 2011) can be followed below.

For one assay, the target named is T1, β-secretase (BACE) (Homo sapiens, UniProt P56817).
T1 construct: purchased Panvera
Description: In Vitro BACE FS1 % Inhibition Assay (Example 15). The format is biochemical. Conditions: FS1 substrate. As to the method: The following reagents were used in this assay: sodium acetate, PEG8000 (Sigma), DMSO, HEPES, FS1 substrate [R(AedensE)[…]-(DabcylK)R], β-secretase (BACE) (Panvera), and 96-well plate (HE microplate, Molecular Devices).
The following assay buffers were prepared and used in this assay: (1) enzyme assay buffer (0.05 M sodium acetate, pH5, 0.1% PEG8000 (w/v)), (2) substrate assay buffer (0.05 M sodium acetate, pH5), and (3) compound vehicle (30% DMSO in 50 mM HEPES, pH 7.4).
The FS1-substrate stock solution was prepared in DMSO as a 10 mg/mL solution. The FS1-substrate working solution was prepared by diluting the 10 mg/mL stock solution with substrate assay buffer to a final concentration of 300 μg/mL. The β-secretase (BACE) working solution was prepared by diluting a 0.83 mg/mL BACE stock solution with enzyme assay buffer to a final concentration of 4 μg/mL.
Test compounds were dissolved in DMSO to 10 mM. Compounds were further diluted in vehicle to various concentrations in the range of 405 μM to 4.05 μM (13.5× final compound concentration in screening plate).
The screening procedure for this assay was as follows: 15 μL of BACE working solution was pipetted into each well of a 96-well plate. To each well was then pipetted 2 μL of test compound at the selected concentration. Test compound and BACE were then mixed with a pipettor and incubated for 20 min at room temperature. To each well was then added 10 μL of the FS1 substrate working solution. The plates were then incubated for 1 hour at room temperature. The fluorescence for each well was then measured on an LJL analyst (Ex 360 nm/Em 530 nm).
The procedure for the blank (negative control) was as follows. 15 μL of assay buffer was pipetted into each well to be used as a blank control. To each well was then added 2 μL of vehicle and 10 μL of FS1-substrate working solution. The plates were then incubated for 1 hour at room temperature. The fluorescence was measured on an LJL analyst (Ex 360 nm/Em 530 nm).
The procedure for the positive control was as follows: 15 μL of BACE working solution was pipetted into each well to be used as a positive control. To each well was then pipetted 2 μL of vehicle. Vehicle and BACE were then mixed with a pipettor and incubated for 20 min at room temperature. To each well was then added 10 μL of the FS1 substrate working solution. The plates were then incubated for 1 hour at room temperature. The fluorescence (Fl) was then measured on an LJL analyst (Ex 360 nm/Em 530 nm).
For test compounds, % inhibition was determined at each concentration as follows:
% Inhibition values of less than 30% were indistinguishable from control and are listed as ≦30% in the Table below. % Inhibition values greater than 100% were indistinguishable from 100% within the error of the measurement.

For the next assay, the target named is human BACE-1 (Homo sapiens, UniProt P56817). Nature of the assay: In Vitro BACE Assay run by CEREP (Example 19). The note with it: recombinant enzyme; for inhibition at 1 µM: pH 4.5, 1.0 μM compound; for IC50: pH 4.5; for inhibition at 10 µM: pH 4.5, 10.0 μM compound. The format is biochemical. As to the method: This assay was run by CEREP (Catalog Ref. 761-B, Referred to SOP No. 1C131; ERMOLIEFF, J., LOY, J. A., KOELSCH, G. and TANG, J., Proteolytic activation of recombinant pro-memapsin 2 (pro-BACE) studied with new fluorogenic substrates, Biochemistry, (2000) Vol. 39, p. 12450).
More specifically the assay, run at 50 μL in a 96 well plate, evaluated the effect of test compound on the activity of the human BACE-1 quantified by measuring the formation of Mca-S-E-V—N-L-NH2 from Mca-S-E-V—N-L-D-A-E-F—R—K(Dnp)-R—R—NH2, using a recombinant enzyme.
The test compound, reference compound or water (control) was added to a buffer containing 0.09 M sodium acetate (pH 4.5) and 0.25 μg BACE-1. Compound interference with the fluorimetric detection method due to autofluorescence was then checked by measurements at the wavelengths defined to evaluate the enzyme activity. Thereafter, the reaction was initiated by adding 7.5 μM of the substrate Mca-S-E-V—N-L-D-A-E-F—R—K(Dnp)-R—R—NH2 and the mixture was incubated for 60 min at 37° C. For control basal measurement, the substrate was omitted from the reaction mixture. Immediately after the incubation, the fluorescence intensity emitted by the reaction product Mca-S-E-V—N-L-NH2 was measured at λex=320 nm and λem=405 nm using a microplate reader (Ultra, Tecan). The standard inhibitory reference compound was OM99-2, which was tested in each experiment at several concentrations to obtain an inhibition curve from which its IC50 value was calculated.

Sequence of human BACE-1 (P56817 46-501): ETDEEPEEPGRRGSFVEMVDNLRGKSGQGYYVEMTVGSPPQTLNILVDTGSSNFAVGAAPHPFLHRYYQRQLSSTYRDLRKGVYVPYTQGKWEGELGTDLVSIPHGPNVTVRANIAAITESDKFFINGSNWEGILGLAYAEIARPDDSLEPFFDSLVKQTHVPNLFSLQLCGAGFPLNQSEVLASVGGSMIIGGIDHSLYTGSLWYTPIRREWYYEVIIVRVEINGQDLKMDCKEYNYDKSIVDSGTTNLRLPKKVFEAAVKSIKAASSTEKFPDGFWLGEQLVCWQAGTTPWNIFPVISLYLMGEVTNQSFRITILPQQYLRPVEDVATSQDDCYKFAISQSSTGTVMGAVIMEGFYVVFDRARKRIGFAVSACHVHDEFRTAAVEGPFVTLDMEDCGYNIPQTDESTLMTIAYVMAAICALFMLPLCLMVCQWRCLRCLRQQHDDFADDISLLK
T1 sequence (P56817 46-501): as above

For the compound `Cn1ccnc1CN(CCCC(c1cc2cc(Oc3ccccc3)ccc2nc1N)C1CCOCC1)CCC(C)(C)C` (stereo not shown) [Example 11, 3-[4-[(3,3-dimethyl-butyl)-(1-methyl-1H-imidazol-2-ylmethyl)-amino]-1-(tetrahydro-pyran-4-yl)-butyl]-6-phenoxy-quinolin-2-ylamine], on β-secretase (BACE) (0.3 μM compound), the “% Inhibition @ 0.3 μM” value is −6%. Moreover, at β-secretase (BACE) (1 μM compound), the “% Inhibition @ 1 μM” value is recorded as 5%. The “% Inhibition @ 3 μM” value on β-secretase (BACE) (3 μM compound) is on record as 81%.
Consider `CN(C(=O)CCCC(c1cc2cc(Oc3ccccc3)ccc2nc1N)C1CCCCC1)C1CCCCC1` (stereo not shown) [compound 40], for which the inhibition at 0.3 µM at human BACE-1 (pH 4.5, 0.3 μM compound) stood at 13%. In addition, at human BACE-1, the inhibition at 1 µM amounted to 54% and the concentration for half-maximal inhibition (IC50) is 650 nM.
Turning to `Nc1nc2ccc(Oc3ccccc3)cc2cc1C(CCC(=O)N(CCO)C1CCCCC1)C1CCOCC1` (stereo not shown) [compound 50], at human BACE-1, the inhibition at 1 µM is 87% and the half-inhibitory concentration (IC50) was 740 nM.
For `Nc1nc2ccc(Oc3ccccc3)cc2cc1[C@@H](CCC(=O)NCC1CC1)C1CCOCC1` [compound 78] the same measures were 75% and 340 nM.
For `CC(C)(C)CCNC(=O)CC[C@H](c1cc2cc(Oc3ccccc3)ccc2nc1N)C1CCOCC1` [compound 79] the same measures were 89% and 290 nM.
The matching figures for `CC(C)(C)CCNC(=O)CCC[C@H](c1cc2cc(Oc3ccccc3)ccc2nc1N)C1CCOCC1` [compound 82]: 85% and 210 nM.
`CN(CC1CCCCC1)C(=O)CC[C@H](c1cc2cc(Oc3ccccc3)ccc2nc1N)C1CCOCC1` [compound 84]: on human BACE-1, the inhibition at 1 µM worked out at 96% and the IC50 was 360 nM.
Take `CN(CCC[C@H](c1cc2cc(Oc3ccccc3)ccc2nc1N)C1CCOCC1)CC1CCCCC1` [compound 85]: at human BACE-1, the inhibition at 10 µM stood at 98% and the half-inhibitory concentration (IC50) is 340 nM.
For `Cn1ccnc1CN(CCC(C)(C)C)C(=O)CC[C@H](c1cc2cc(Oc3ccccc3)ccc2nc1N)C1CCOCC1` [compound 86], at human BACE-1, the inhibition at 1 µM was found to be 100% and the IC50 turned out to be 220 nM.
Take `Cn1ccnc1CN(CCC(C)(C)C)C(=O)CCCC(c1cc2cc(Oc3ccccc3)ccc2nc1N)C1CCOCC1` (stereo not shown) [compound 87]: at human BACE-1, the inhibition at 10 µM amounted to 99% and the half-maximal inhibitory concentration (IC50) was 260 nM.
Take `CCOC(=O)C(COCc1ccccc1)NCCCC(c1cc2cc(Oc3ccccc3)ccc2nc1N)C1CCOCC1` (stereo not shown) [compound 89]: on human BACE-1, the inhibition at 10 µM is 85% and the 50% inhibitory concentration (IC50) worked out at 690 nM.
Take `Nc1nc2ccc(Oc3ccccc3)cc2cc1C(CCCC(=O)N(CCN1CCOCC1)C1CCCCC1)C1CCOCC1` (stereo not shown) [compound 90]: on human BACE-1, the inhibition at 10 µM came to 94% and the IC50 amounted to 1700 nM.
For `Nc1nc2ccc(Oc3ccccc3)cc2cc1C(CCCC(=O)N(CCN1CCCC1)C1CCCCC1)C1CCOCC1` (stereo not shown) [compound 91] the same measures were 86% and 1100 nM.
Consider `CC(C)(C)CCN(CCCC(c1cc2cc(Oc3ccccc3)ccc2nc1N)C1CCOCC1)CCN1CCCC1` (stereo not shown) [compound 93], for which, at human BACE-1, the inhibition at 10 µM stood at 95% and the IC50 was 86 nM.
For `Cn1ccnc1CN(CCCC(c1cc2cc(Oc3ccccc3)ccc2nc1N)C1CCOCC1)C1CCCCC1` (stereo not shown) [compound 94] the same measures were 95% and 82 nM.
The matching figures for `COC(=O)C(COCc1ccccc1)NCCCC(c1cc2cc(Oc3ccccc3)ccc2nc1N)C1CCOCC1` (stereo not shown) [compound 95]: 95% and 120 nM.
For `CC(C)C(CO)NCCCC(c1cc2cc(Oc3ccccc3)ccc2nc1N)C1CCOCC1` (stereo not shown) [compound 96] the same measures were 83% and 1700 nM.
Consider `COc1cc2nc(N)c(C(CCC(=O)NCCC(C)(C)C)C3CCOCC3)cc2cc1Oc1ccccc1` (stereo not shown) [compound 100], for which, on human BACE-1, the inhibition at 10 µM is 72% and the IC50 was determined as 370 nM.
Consider `COc1cc2nc(N)c(C(CCC(=O)N(C)C3CCCCC3)C3CCOCC3)cc2cc1Oc1ccccc1` (stereo not shown) [compound 101], for which, at human BACE-1, the inhibition at 10 µM is 85% and the IC50 is 290 nM.
The matching figures for `CCOc1cc2nc(N)c(C(CCC(=O)NCCC(C)(C)C)C3CCOCC3)cc2cc1Oc1ccccc1` (stereo not shown) [compound 102]: 97% and 270 nM.
Turning to `COc1cc2nc(N)c(C(CCC(=O)N(CCN3CCOCC3)C3CCCCC3)C3CCOCC3)cc2cc1Oc1ccccc1` (stereo not shown) [compound 107], at human BACE-1, the inhibition at 10 µM amounted to 89% and the IC50 was 360 nM.
The matching figures for `COc1cc2nc(N)c(C(CCCN(CCN3CCOCC3)C3CCCCC3)C3CCOCC3)cc2cc1Oc1ccccc1` (stereo not shown) [compound 108]: 95% and 360 nM.
With `CC(C)(C)n1cc(CC(c2cc3cc(Oc4ccccc4)ccc3nc2N)C2CCOCC2)nn1` (stereo not shown) [compound 150], on human BACE-1, the inhibition at 1 µM was found to be 12% and the half-inhibitory concentration (IC50) was 3300 nM.
For `CC(C)(C)Cc1cc(CC(c2cc3cc(Oc4ccccc4)ccc3nc2N)C2CCOCC2)on1` (stereo not shown) [compound 151] the same measures were 90% and 310 nM.
For `CC(C)(C)c1cc(CC(c2cc3cc(Oc4ccccc4)ccc3nc2N)C2CCOCC2)on1` (stereo not shown) [compound 152] the same measures were 53% and 560 nM.
Consider `Nc1nc2ccc(Oc3ccccc3)cc2cc1C(Cc1cn(C23CC4CC(CC(C4)C2)C3)nn1)C1CCOCC1` (stereo not shown) [compound 153], for which, on human BACE-1, the inhibition at 1 µM came out at 46% and the IC50 was determined as 670 nM.
For `Nc1nc2ccc(Oc3ccccc3)cc2cc1C(CCc1cn(C23CC4CC(CC(C4)C2)C3)nn1)C1CCOCC1` (stereo not shown) [compound 155] the same measures were 67% and 2200 nM.
`CC(C)(C)c1cc(CCC(c2cc3cc(Oc4ccccc4)ccc3nc2N)C2CCOCC2)on1` (stereo not shown) [compound 156]: on human BACE-1, the inhibition at 1 µM stood at 85% and the half-inhibitory concentration (IC50) worked out at 310 nM.
